Values of other authors in patent US8008021B2, “N-terminal truncation of cardiac troponin subunits and their roles in cardiovascular disease” (Evanston Northwestern Healthcare, priority 2006, dated 2011).

Biological target: T1, m-calpain (Homo sapiens, UniProt P17655)
T1 sequence (P17655 1-700): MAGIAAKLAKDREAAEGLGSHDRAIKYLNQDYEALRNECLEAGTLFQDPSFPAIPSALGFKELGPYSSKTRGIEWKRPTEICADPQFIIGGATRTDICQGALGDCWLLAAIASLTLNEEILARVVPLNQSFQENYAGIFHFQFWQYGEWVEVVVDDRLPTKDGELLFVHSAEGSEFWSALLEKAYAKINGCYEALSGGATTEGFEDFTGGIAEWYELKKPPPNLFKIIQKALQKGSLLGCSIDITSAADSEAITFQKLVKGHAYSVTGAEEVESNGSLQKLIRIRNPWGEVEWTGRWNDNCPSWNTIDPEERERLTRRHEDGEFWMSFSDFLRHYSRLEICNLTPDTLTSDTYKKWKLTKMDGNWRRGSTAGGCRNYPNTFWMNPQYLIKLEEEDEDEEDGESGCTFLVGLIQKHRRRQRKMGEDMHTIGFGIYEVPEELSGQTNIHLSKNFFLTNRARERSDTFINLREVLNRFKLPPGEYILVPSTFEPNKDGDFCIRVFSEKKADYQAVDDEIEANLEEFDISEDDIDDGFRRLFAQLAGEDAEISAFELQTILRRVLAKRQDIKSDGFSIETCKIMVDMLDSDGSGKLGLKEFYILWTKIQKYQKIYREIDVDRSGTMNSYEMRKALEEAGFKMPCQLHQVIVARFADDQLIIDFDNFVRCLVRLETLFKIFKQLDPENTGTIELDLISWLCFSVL
T1 sequence (P04632 1-268 partner): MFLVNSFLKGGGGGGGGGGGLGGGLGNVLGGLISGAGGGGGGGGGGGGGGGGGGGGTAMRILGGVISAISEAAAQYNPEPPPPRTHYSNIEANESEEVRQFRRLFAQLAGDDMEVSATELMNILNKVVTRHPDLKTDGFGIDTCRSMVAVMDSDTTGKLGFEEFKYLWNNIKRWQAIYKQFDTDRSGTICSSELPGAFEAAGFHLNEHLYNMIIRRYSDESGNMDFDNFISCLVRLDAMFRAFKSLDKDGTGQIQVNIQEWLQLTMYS
Settings: reference 43; read-out: apparent inhibition constant Ki against m-calpain; cited from earlier work

Row | Structure (SMILES) | Ki
1 | O=C(O)/C(S)=C/c1ccc(I)cc1 [PD150606] | 370 ± 30 nM
2 | O=C(O)/C(S)=C/c1c[nH]c2ccc(F)cc12 [PD151746] | 5330 ± 770 nM
